Tests used:
Test in all cases: relative viability (nuclei count vs DMSO), 5 days (fraction); higher = more cells survive
Bosutinib + Trametinib = compound: COc1cc(Nc2c(C#N)cnc3cc(OCCCN4CCN(C)CC4)c(OC)cc23)c(Cl)cc1Cl [Bosutinib] + CC(=O)Nc1cccc(-n2c(=O)n(C3CC3)c(=O)c3c(Nc4ccc(I)cc4F)n(C)c(=O)c(C)c32)c1 [Trametinib] (partner 0.02 µM)
How it was run: (§1)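 Lung cancer cell lines in 1536-well plates got either a single drug or a fixed anchor-drug dose together with five library-drug doses (not always all listed) in √10 steps, by pin tool, on the day after seeding. Nuclei were counted after 5 days, and relative viability is the treated-to-vehicle ratio of nuclei counts. Values are medians of duplicate plates.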

Bosutinib + Palbociclib = compound: COc1cc(Nc2c(C#N)cnc3cc(OCCCN4CCN(C)CC4)c(OC)cc23)c(Cl)cc1Cl [Bosutinib] + CC(=O)c1c(C)c2cnc(Nc3ccc(N4CCNCC4)cn3)nc2n(C2CCCC2)c1=O [Palbociclib] (partner 0.5 µM)
How it was run: as §1

Bosutinib + Tozasertib = compound: COc1cc(Nc2c(C#N)cnc3cc(OCCCN4CCN(C)CC4)c(OC)cc23)c(Cl)cc1Cl [Bosutinib] + Cc1cc(Nc2cc(N3CCN(C)CC3)nc(Sc3ccc(NC(=O)C4CC4)cc3)n2)n[nH]1 [Tozasertib] (partner 0.1 µM)
How it was run: as §1

Bosutinib + Dasatinib = compound: COc1cc(Nc2c(C#N)cnc3cc(OCCCN4CCN(C)CC4)c(OC)cc23)c(Cl)cc1Cl [Bosutinib] + Cc1nc(Nc2ncc(C(=O)Nc3c(C)cccc3Cl)s2)cc(N2CCN(CCO)CC2)n1 [Dasatinib] (partner 0.075 µM)
How it was run: as §1

Bosutinib + AZD7762 = compound: COc1cc(Nc2c(C#N)cnc3cc(OCCCN4CCN(C)CC4)c(OC)cc23)c(Cl)cc1Cl [Bosutinib] + NC(=O)Nc1cc(-c2cccc(F)c2)sc1C(=O)N[C@H]1CCCNC1 [AZD7762] (partner 0.2 µM)
How it was run: as §1

| Cell Line | relative viability (Bosutinib + Trametinib; first compound 0.01 µM) | relative viability (Bosutinib + Trametinib; first compound 0.03162 µM) | relative viability (Bosutinib + Trametinib; first compound 0.1 µM) | relative viability (Bosutinib + Trametinib; first compound 1 µM) | relative viability (Bosutinib + Palbociclib; first compound 0.01 µM) | relative viability (Bosutinib + Palbociclib; first compound 0.03162 µM) | relative viability (Bosutinib + Palbociclib; first compound 0.1 µM) | relative viability (Bosutinib + Palbociclib; first compound 1 µM) | relative viability (Bosutinib + Tozasertib; first compound 0.01 µM) | relative viability (Bosutinib + Tozasertib; first compound 0.03162 µM) | relative viability (Bosutinib + Tozasertib; first compound 0.1 µM) | relative viability (Bosutinib + Tozasertib; first compound 1 µM) | relative viability (Bosutinib + Dasatinib; first compound 0.01 µM) | relative viability (Bosutinib + Dasatinib; first compound 0.03162 µM) | relative viability (Bosutinib + Dasatinib; first compound 0.1 µM) | relative viability (Bosutinib + Dasatinib; first compound 1 µM) | relative viability (Bosutinib + AZD7762; first compound 0.01 µM) | relative viability (Bosutinib + AZD7762; first compound 0.03162 µM) | relative viability (Bosutinib + AZD7762; first compound 0.1 µM) | relative viability (Bosutinib + AZD7762; first compound 1 µM) |
| --- | --- | --- | --- | --- | --- | --- | --- | --- | --- | --- | --- | --- | --- | --- | --- | --- | --- | --- | --- | --- |
| HOP-62 | 0.377 | 0.425 | 0.401 | 0.354 | 0.378 | 0.487 | 0.473 | 0.447 | 0.394 | 0.411 | 0.35 | 0.381 | 0.692 | 0.639 | 0.671 | 0.688 | 0.497 | 0.619 | 0.721 | 0.4 |
| RERF-LC-KJ | 0.733 | 0.809 | 0.902 | 0.826 | 0.956 | 1.06 | 1.06 | 1.08 | 0.58 | 0.436 | 0.491 | 0.599 | 0.746 | 0.882 | 0.826 | 0.735 | 0.979 | 0.982 | 1.07 | 0.877 |
| LCLC-103H | 0.747 | 0.685 | 0.672 | 0.656 | 0.497 | 0.498 | 0.452 | 0.491 | 0.486 | 0.497 | 0.48 | 0.484 | 0.513 | 0.502 | 0.567 | 0.449 | 0.854 | 0.74 | 0.827 | 0.771 |
| NCI-H1915 | 0.306 | 0.291 | 0.295 | 0.253 | 0.521 | 0.513 | 0.544 | 0.56 | 0.438 | 0.449 | 0.429 | 0.419 | 0.323 | 0.323 | 0.33 | 0.297 | 0.718 | 0.647 | 0.654 | 0.572 |
| ChaGo-K-1 | 0.91 | 0.89 | 0.891 | 0.875 | 0.918 | 0.939 | 0.972 | 0.881 | 0.22 | 0.254 | 0.224 | 0.213 | 0.662 | 0.56 | 0.637 | 0.6 | 0.919 | 0.89 | 0.923 | 0.852 |
| PC-14 | 0.721 | 0.675 | 0.491 | 0.13 | 0.566 | 0.482 | 0.32 | 0.0932 | 0.581 | 0.501 | 0.473 | 0.208 | 0.282 | 0.239 | 0.238 | 0.0662 | 0.351 | 0.284 | 0.287 | 0.193 |
| NCI-H1437 | 0.486 | 0.403 | 0.53 | 0.413 | 0.332 | 0.281 | 0.317 | 0.343 | 0.401 | 0.426 | 0.407 | 0.344 | 0.392 | 0.384 | 0.4 | 0.338 | 1.08 | 1.07 | 1.13 | 0.922 |
| NCI-H1734 | 0.693 | 0.711 | 0.726 | 0.591 | 0.334 | 0.367 | 0.365 | 0.299 | 0.245 | 0.242 | 0.245 | 0.248 | 0.523 | 0.508 | 0.512 | 0.46 | 0.632 | 0.512 | 0.512 | 0.369 |
| LK-2 | 0.873 | 0.784 | 0.667 | 0.672 | 0.681 | 0.636 | 0.584 | 0.66 | 0.194 | 0.168 | 0.191 | 0.178 | 0.288 | 0.287 | 0.264 | 0.296 | 0.387 | 0.417 | 0.461 | 0.2 |
| HCC-15 | 0.396 | 0.457 | 0.383 | 0.328 | 0.763 | 0.71 | 0.699 | 0.63 | 0.474 | 0.418 | 0.361 | 0.328 | 0.651 | 0.662 | 0.678 | 0.674 | 1.23 | 1.12 | 1.23 | 1.23 |
| HCC-366 | 0.319 | 0.226 | 0.326 | 0.215 | 0.423 | 0.365 | 0.375 | 0.247 | 0.161 | 0.142 | 0.104 | 0.0934 | 0.755 | 0.627 | 0.692 | 0.66 | 0.34 | 0.253 | 0.205 | 0.073 |
| NCI-H650 | 0.907 | 0.918 | 0.961 | 0.975 | 0.398 | 0.325 | 0.332 | 0.406 | 0.74 | 0.772 | 0.721 | 0.801 | 0.47 | 0.502 | 0.488 | 0.552 | 0.908 | 0.992 | 1.04 | 0.981 |
| NCI-H2347 | 0.309 | 0.27 | 0.297 | 0.307 | 0.499 | 0.425 | 0.432 | 0.453 | 0.599 | 0.571 | 0.638 | 0.514 | 0.296 | 0.324 | 0.314 | 0.258 | 0.748 | 0.725 | 0.777 | 0.487 |
| LXF-289 | 0.654 | 0.721 | 0.679 | 0.751 | 0.634 | 0.614 | 0.607 | 0.669 | 0.183 | 0.191 | 0.238 | 0.179 | 0.231 | 0.213 | 0.2 | 0.224 | 1.17 | 1.14 | 1.14 | 1.02 |
| BEN | 1.02 | 0.855 | 1.01 | 0.804 | 0.449 | 0.444 | 0.493 | 0.447 | 0.499 | 0.439 | 0.48 | 0.539 | 0.315 | 0.339 | 0.344 | 0.368 | 0.608 | 0.697 | 0.675 | 0.658 |

— the supplement of paper PMC10307832
